{
  "source": "paper PMC9423655",
  "about": "“Huntington’s disease phenotypes are improved via mTORC1 modulation by small molecule therapy” (PLoS ONE, 2022)",
  "key": {"[1]": {"biological_target": "T1, Sestrin2/GATOR2 interaction (Homo sapiens, UniProt P58004)", "T1 construct": "endogenous in cells; host or cells: Flag-WDR24 293T (HEK293T) cells", "T1 sequence (P58004 1-480)": "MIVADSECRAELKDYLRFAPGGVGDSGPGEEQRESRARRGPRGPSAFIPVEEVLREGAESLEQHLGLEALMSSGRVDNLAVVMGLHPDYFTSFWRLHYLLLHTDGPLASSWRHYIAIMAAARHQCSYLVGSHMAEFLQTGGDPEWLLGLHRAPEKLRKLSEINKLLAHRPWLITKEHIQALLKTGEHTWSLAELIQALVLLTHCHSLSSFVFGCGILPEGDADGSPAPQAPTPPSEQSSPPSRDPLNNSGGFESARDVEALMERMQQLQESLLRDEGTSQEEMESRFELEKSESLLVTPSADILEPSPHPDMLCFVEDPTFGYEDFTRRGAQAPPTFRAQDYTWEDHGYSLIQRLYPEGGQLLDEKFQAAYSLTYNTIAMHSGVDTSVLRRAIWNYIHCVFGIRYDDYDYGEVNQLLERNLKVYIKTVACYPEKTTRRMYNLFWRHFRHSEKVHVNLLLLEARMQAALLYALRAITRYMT", "experiment": "Lysate-based (cell-free) Sestrin2/GATOR2 protein-protein interaction assay", "assay_type": "binding", "conditions": "added to immunoprecipitated Sestrin2/GATOR2 complexes from amino acid-starved flag-WDR24 HEK293T cells, 10 minutes", "description": "Flag-WDR24 293T cells were washed and placed in amino acid-free RPMI for 50 minutes. Cells were then rinsed once with ice-cold PBS and immediately lysed with Triton lysis buffer. The cell lysates were cleared by centrifugation at 13,200 rpm at 4°C in a microcentrifuge for 10 minutes. The anti-FLAG immunoprecipitations were performed as described above. Immunoprecipitated proteins (IPs) were resuspended in cytosolic buffer (40 mM HEPES pH 7.4, 140 mM KCl, 10 mM NaCl, 2.5 mM MgCl2, 0.1% TritonX-100) containing vehicle, NV-5297 or leucine at the indicated doses for 10 minutes. After compound incubation, IPs were collected by centrifugation, denatured, resolved by SDS-PAGE, and analyzed by immunoblotting.\nNext, Sestrin2/GATOR2 protein-protein interactions in response to NV-5297 were measured using cell-free assays and in vitro. For this, HEK293T cells stably expressing flag-WDR24, a component of GATOR2 [44], were used. The cell-free assays utilized Sestrin2/GATOR2 complexes immunoprecipitated from amino acid-starved cells with an anti-flag antibody."}, "[2]": {"tested_on": "N171-82Q HD mice", "experiment": "Chronic 6-week treatment: weight, forelimb grip strength, accelerating rotarod", "assay_type": "in vivo", "conditions": "N171-82Q mice", "description": "The initial trial consisted in one week of oral dosing in 12 weeks old N171-82Q males. The chronic 6 weeks treatment (Veh n = 15, NV-5297 n = 14) took place from 6 to 12 weeks of age. The cardiac stress took place in animals from 10 to 12 weeks of age (Veh-Sal n = 9, NV-Sal n = 10, Veh-Iso n = 16, NV-Iso n = 11).\nThe accelerated rotarod (model 47600; Ugo Basile, Comerio, Italy) test was carried out as previously described. Mice were tested at 5 (baseline) and 12 weeks of age. Briefly, mice were habituated to the test room for an hour. On the first day, mice were trained on the rotarod for 5 minutes at 4 rpm. Mice were then tested in three trials per day (with at least 30 minutes of rest between trials) for four consecutive days. For each trial, the rotarod accelerated from 4 to 40 rpm over 4 minutes with constant speed at 40 rpm for an additional minute. Trials were stopped at 300 seconds. Latency to fall (or two consecutive rotations without running) was recorded for every trial. For grip strength, mice were tested at 5 (baseline), 9 and 12 weeks of age. Mice were habituated to the test room for 1 hour. The mouse held a pull bar with both paws and are then pulled horizontally until they let go of the pull bar. Forelimb grip strength at the peak tension was measured five times per mice (Columbus Instrument). There were at least 30 minutes of rest between trials. The grip strength is calculated as the average of the four highest grip strength recorded."}, "[3]": {"tested_on": "mTORC1 pathway in striatum", "experiment": "Chronic 6-week treatment: striatum immunoblots", "assay_type": "in vivo, N171-82Q mice", "text": "Animals were sacrificed by live decapitation one hour after the last oral dosing. Whole hearts were excised, blot-dried and weighed on an analytical balance. The heart was bisected transversely and the apical halves was preserved for cardiomyocyte and fibrosis staining. Left tibias were isolated and measured with an electronic caliper. The brain left hemisphere was preserved for MSN size measurement. The brain right hemisphere was microdissected and the medial pre-frontal cortex, striatum, cortex, hippocampus and cerebellum were collected.\nSpecific regions of the brain and heart were homogenized using a Next Advance Bullet Blender Storm in Lysis Buffer (Cell lysis buffer: 1% Triton X-100, 50 mM HEPES pH 7.4, 100 mM sodium chloride, 2 mM EDTA, 10 mM Beta-glycerophosphate, 10 mM Sodium pyrophosphate, and 1 protease inhibitor) at 4°C. Lysates were cleared by centrifugation at 13,200 rpm at 4°C for 10 minutes. Equal amounts of total protein from each sample were denatured and, resolved by SDS-PAGE. Membranes were imaged using the LI-COR imaging system. Proteins levels are normalized to tubulin, actin or GAPDH levels and further normalized to vehicle treated mice for each tissue.\nFig 3 Activation of the mTORC1 pathway in the striatum following daily oral dosing of NV-5297. (A) Representative immunoblots of the striatum for normalized phosphorylated S6 [^S240/244pS6], S6, phosphorylated Akt [^S437pAkt], Akt, phosphorylated mTOR [^S2448pmTOR], mTOR, DARPP-32, phosphorylated 4E-BP1 [^Thr37/46p4E-BP1], 4E-BP1 and Actin from homogenized striatum isolated from N171-82Q males after 6 weeks of daily oral dosing of NV-5297 (160 mg/kg) or vehicle [Veh]. (B) Quantification of the immunoblots from homogenized striatum isolated 1 hour after the final oral dosing with NV-5297 (160 mg/kg; n = 14) normalized to loading control levels and further normalized to vehicle treated mice (n = 15). A significant Spearman correlation is present between pS6/S6 and DARPP32 levels. Data are presented as mean ± SEM. *P ≤ 0.05, ***P ≤ 0.001, ****P ≤ 0.0001 (one-tailed unpaired Student’s t-test [pmTOR/mTOR, DARPP-32], with a Welch’s correction [pS6/S6, p4E-BP1/4E-BP1], Mann-Whitney test [pAkt/Akt]."}, "[4]": {"conditions": "oral 160 mg/kg daily for 6 weeks"}, "[5]": {"conditions": "N171-82Q mice, 160 mg/kg daily 6 weeks"}, "[6]": {"conditions": "N171-82Q mice, 160 mg/kg daily 6 weeks, 1 hour after final dose"}},
  "data": [
    {"smiles": "CC(C)(C[C@H](N)C(=O)O)C(F)(F)F", "note": "[NV-5297, (S)-2-amino-5,5,5-trifluoro-4,4-dimethylpentanoic acid]", "values": [
      {"measurement": "Sestrin2/GATOR2 interaction (GATOR2-associated Sestrin2)", "setting": "[1]", "value": "disrupted the Sestrin2/GATOR2 interaction in a dose-dependent manner"},
      {"measurement": "accelerating rotarod motor performance over 4-day trial", "setting": "[2]; 12 weeks of age, oral 160 mg/kg daily for 6 weeks", "value": "improved rotarod motor performance"},
      {"measurement": "adverse effects to the treatment", "setting": "[2]; NV-5297 treatment, response to reviewers", "value": "No mice had explicit adverse effects"},
      {"measurement": "forelimb grip strength", "setting": "[2]; [4]", "value": "did not impact"},
      {"measurement": "weight loss", "setting": "[2]; [4]", "value": "did not impact"},
      {"measurement": "striatal p4E-BP1/4E-BP1", "setting": "[3]; [5]", "value": "unchanged"},
      {"measurement": "striatal pAkt/Akt", "setting": "[3]; [5]", "value": "unchanged"},
      {"measurement": "striatal pmTOR/mTOR", "setting": "[3]; [5]", "value": "unchanged"},
      {"measurement": "striatal DARPP-32", "setting": "[3]; [6]", "value": "significantly elevated"},
      {"measurement": "striatal pS6", "setting": "[3]; [6]", "value": "significantly elevated"},
      {"measurement": "duration of mTORC1 pathway activation", "setting": "[3]; NV-5297 daily treatment, response to reviewers", "value": "~ 3 hours per day"}
    ]}
  ]
}
